Assay results: patent publication US10106565B2 (priority 2008, dated 2018)

Tests used:
human monocytes [1] = experiment: Differentiation of monocytes in osteoclasts (M-CSF and sRANK-Ligand); type: cell-based
Method: PBMC from adult healthy volunteers are prepared as described in example 1.
Monocytes are then purified by negative selection using a kit containing a mixture of mouse anti-human mAbs and superparamagnetic polystyrene beads coated with a human anti-mouse IgG mAbs, according to the manufacturer's instructions (Dynal). The cells obtained after the purification are >90% pure.
Pure monocytes are activated or not during 6 hours with 20 μM of dendrimer Gc1. After three washings, activated and not activated monocytes are cultured for 21 days in α-MEM complete medium, i.e. supplemented with 10% of heat inactivated fetal calf serum (FCS) (Invitrogen), 2 mM L-glutamine, 100 U/mL penicillin and 100 μg/mL streptomycin (Cambrex Bioscience) in presence or not of 20 μM of dendrimer Gc1. To generate osteoclasts, 50 ng/mL of M-CSF (PeproTech) and 30 ng/mL of sRANK-Ligand (PeproTech) are added to the culture medium. Each three days, half medium is changed and 25 ng/mL of M-CSF and 100 ng/mL of sRANK-Ligand are added. At day 21, the cells are fixed and stained with the leucocyte phosphatase acid kit according to the manufacturer's instructions (Sigma-Aldrich).

human monocytes [2] = experiment: Affymetrix genechip transcriptional profile of monocytes activated by dendrimer; type: cell-based; settings: 20 μM, 6 hours, vs untreated monocytes
Method: Peripheral Blood Mononuclear Cells (PBMC) from adult healthy volunteers are prepared as described in example 1.
Monocytes are then purified by positive selection using microbeads conjugated with anti-CD14 mAb, according to the manufacturer's instructions (Miltenyi Biotec). The cells obtained after the purification are >95% pure. The CD14 negative fraction is collected as Peripheral Blood Lymphocytes (PBL).
Monocytes are cultured at a final concentration of 1×10^6 cells/mL in complete RPMI 1640 medium (as described in example 1.1).
For genechip analysis, 10×10^6 monocytes from 3 donors (and from 3 more donors for quantitative PCR) are cultured in 25 cm^2 dishes. They are stimulated with 20 μM of dendrimer for 6 hours or remain untreated (control cells).
Total RNA are extracted from 10×10^6 monocytes using TRIzol™ Reagent (Invitrogen), according to the manufacturer's instructions. The quality and integrity of the RNA obtained are assessed by using an Agilent 2100 Bioanalyser (Agilent Technologies) after a denaturating step at 70° C. for 2 minutes. cRNA are prepared according to one-Cycle Target Labelling protocol (Affymetrix) starting from 1 μg of total RNA.
cRNA are fragmented and hybridized to Affymetrix HG-U133 plus 2.0 arrays. […] Monocytes from 3 donors are analyzed after 6 hour incubation in the presence or absence of the dendrimer Gc1. […]

human monocytes [3] = experiment: Flow cytometry phenotype of dendrimer-activated monocytes (surface markers); type: cell-based; settings: 20 μM, compared with alt- and class-monocytes
Method: (§1) For the functional experiments, freshly purified monocytes are cultured in 6-well plates. The cells are stimulated for 24 hours (immunophenotyping by flow cytometry analyses, MLR) or 96 hours (CD206 detection) with different stimuli or remain untreated (control). Dendrimer-activated monocytes (da-monocytes) are obtained with 20 μM of the dendrimer Gc1, alternatively-activated monocytes (alt-monocytes) with 10 U/mL recombinant human IL4 (Peprotech). The classical activation of monocytes is obtained by priming the cells over night (18 hours) with 100 U/mL of human recombinant IFN-γ (R&D Systems) and, after a washing step in PBS, by stimulation with 10 ng/mL LPS from E. coli 011/B4 strain (InvivoGen) for the remaining 6 hours or […].
Flow cytometry is performed on a LSR-II cytometer (BD Biosciences). The data are analyzed with FACSDiva (BD Biosciences) or WinMDI softwares. The expression of surface markers is performed using mouse anti-human fluorochrome-conjugated mAbs specific for MHC class II-FITC (clone Tü36), CD86-PE (clone 2331), MHC class I-PE-Cy5 (clone G46-2.6) and CD13-PE (clone WM15) from BD Biosciences and specific for CD64-FITC (clone 22) and CD206-PE (clone 3.29B1.10) from Beckman-Coulter. Appropriate isotype-matched antibodies are used as negative control.

CD4 T cells = experiment: Allogenic mixed leucocyte reaction (MLR) with activated monocytes; type: cell-based, human; settings: 20 μM, 24 hours activation; PBL:monocyte ratios 4:1 to 100:1; vs alt- and class-monocytes
Method: as §1
MLR are performed in 96-well round bottom plates in a total volume of 200 μL in complete RPMI 1640 medium. […] The proliferation of the CD4 T cells is analyzed by measuring the cytoplasmic dilution of CFSE (as described in 5.1. Methods). […] Then, CFSE dilution is analyzed by flow cytometry to measure the proliferation of alloantigen-induced CD4 T cells. After gating for CD4 positive cells CFSE fluorescence intensities are analyzed, and the percentage of CD4 T cells which have proliferated during the MLR is taken into account. […] The overall differences are evaluated by analysis of variance test (ANOVA) with Sigma Stat software (Systat Software).

Compound: CN(/N=C/c1ccc(OP2(Oc3ccc(/C=N/N(C)P(=S)(Oc4ccc(CCN(CP(=O)(O)O)CP(=O)(O)O)cc4)Oc4ccc(CCN(CP(=O)(O)O)CP(=O)(O)O)cc4)cc3)=NP(Oc3ccc(/C=N/N(C)P(=S)(Oc4ccc(CCN(CP(=O)(O)O)CP(=O)(O)O)cc4)Oc4ccc(CCN(CP(=O)(O)O)CP(=O)(O)O)cc4)cc3)(Oc3ccc(/C=N/N(C)P(=S)(Oc4ccc(CCN(CP(=O)(O)O)CP(=O)(O)O)cc4)Oc4ccc(CCN(CP(=O)(O)O)CP(=O)(O)O)cc4)cc3)=NP(Oc3ccc(/C=N/N(C)P(=S)(Oc4ccc(CCN(CP(=O)(O)O)CP(=O)(O)O)cc4)Oc4ccc(CCN(CP(=O)(O)O)CP(=O)(O)O)cc4)cc3)(c3ccc(/C=N/N(C)P(=S)(Oc4ccc(CCN(CP(=O)(O)O)CP(=O)(O)O)cc4)Oc4ccc(CCN(CP(=O)(O)O)CP(=O)(O)O)cc4)cc3)=N2)cc1)P(=S)(Oc1ccc(CCN(CP(=O)(O)O)CP(=O)(O)O)cc1)Oc1ccc(CCN(CP(=O)(O)O)CP(=O)(O)O)cc1 (stereo not drawn) [Gc1]
- differentiation of human monocytes in osteoclasts (human monocytes [1]; 20 μM added in the culture medium, 21 days): inhibits
- differentiation of human monocytes in osteoclasts (human monocytes [1]; monocytes pre-incubated with 20 μM during 6 hours, then rinsed): inhibition
- number of genes under-expressed by da-monocytes (human monocytes [2]; fold change ≤−2.0 in at least two of three donors): 62
- number of genes over-expressed by da-monocytes (human monocytes [2]; fold change ≥2.0 in at least two of three donors): 78
- cell surface expression of CD13 (aminopeptidase N) (human monocytes [3]; 24 hours): Class-monocytes express a higher level of CD13 than alt- and da-monocytes
- cell surface expression of CD64 (FcγRI) (human monocytes [3]; 24 hours): overexpressed in class-monocytes, but not in alt- or da-monocytes
- expression of HLA-DR, HLA-A,B,C and CD86 (antigen-presenting capacity) (human monocytes [3]; 24 hours): poor APC
- cell surface expression of mannose receptor MRC1 (CD206) (human monocytes [3]; 96 hours): strongly enhanced
- MLR activation (divided CD4+ T lymphocytes) by da-monocytes (CD4 T cells): lowest activating effect on MLR
